One data set relates to HBV. Nature of the data set: Anti-HBV activity in HepG2.2.15 cells (HBV DNA in culture medium by qPCR). Format: cell-based. The conditions noted are these: Hepatitis B virus, 144 h, 6 days treatment. The protocol:
(§1) HepG2.2.15 (the HepG2.2.15 cell line can be produced by transfection of the HepG2 cell line as described in Sells, Chen, and Acs 1987 (Proc. Natl. Acad. Sci. USA 84: 1005-1009), and the HepG2 cell line is available from ATCC® under number HB-8065™)
(§2) HepG2.2.15 cells were plated into 96-well plate in 2% FBS culture medium at the density of 40,000 cells/well and 5,000 cells/well for HBV inhibitory activity and cytotoxicity determination, respectively. After incubation at 37° C., 5% CO2 overnight, cells were treated with medium containing compounds for 6 days with medium and compounds refreshed after 3 days of treatment. Each compound was tested in a 1:3 serial dilutions at 8 different concentrations in triplicate. The highest concentration of the compounds was 10 uM or 1 uM for anti-HBV activity assay and 100 uM for cytotoxicity determination.
The change of HBV DNA level induced by the compounds was assessed by quantitative real-time polymerase chain reaction (qPCR). Briefly, the HBV DNA in the culture medium was extracted using QIAamp 96 DNA Blood Kit according to the manual and then quantified by real-time PCR assay using the primers and probe in the table 1 below.
(§3) EC50 and CC50 values are calculated by the GRAPHPAD PRISM software.

Data set [1] in a line: Cytotoxicity determination in HepG2.2.15 cells (CCK-8 cell viability). The conditions noted are these: human, 6 days treatment, CCK-8 assay. Format: cell-based. As for the experimental part: as §1, §2
Cell viability was determined by CCK-8 assay. After 6 days of compounds treatment, 20 μl CCK-8 reagents were added to each well of cytotoxicity assay plates. Cell plates were incubated at 37° C., 5% CO2 for 2.5 h. The absorbance at 450 nm wavelength and the absorbance at 630 nm wavelength as reference was measured.
as §3

As to `CCOC(=O)C1=C(CN2CC(F)(F)[C@H]3CCN(CC(C)(C)C(=O)O)C(=O)[C@H]32)NC(c2nccs2)=N[C@H]1c1cccc(F)c1C` (single isomer, unassigned) [Compound I-1, 3-((3aS*,7aS*)-1-(((S)-5-(ethoxycarbonyl)-6-(3-fluoro-2-methylphenyl)-2-(thiazol-2-yl)-3,6-dihydropyrimidin-4-yl)methyl)-3,3-difluoro-7-oxohexahydro-1H-pyrrolo[2,3-c]pyridin-6(2H)-yl)-2,2-dimethylpropanoic acid], the EC50 with HBV stood at 0.06 µM. In addition, in data set [1], half-maximal cytotoxicity (CC50 at 6 days) was put at 32 µM.
Consider `CCOC(=O)C1=C(CN2CC(F)(F)[C@H]3CC(=O)N(CC(C)(C)C(=O)O)C[C@H]32)NC(c2nccs2)=N[C@H]1c1cccc(F)c1C` (single isomer, unassigned) [Compound I-2, 3-((3aS*,7aS*)-1-(((S)-5-(ethoxycarbonyl)-6-(3-fluoro-2-methylphenyl)-2-(thiazol-2-yl)-3,6-dihydropyrimidin-4-yl)methyl)-3,3-difluoro-5-oxohexahydro-1H-pyrrolo[2,3-c]pyridin-6(2H)-yl)-2,2-dimethylpropanoic acid], for which, in the data set on HBV, the midpoint of the response, the EC50, lay at 0.034 µM. In data set [1], the CC50 at 6 days turned out to be 50.4 µM.
In turn, `CCOC(=O)C1=C(CN2CC(F)(F)[C@H]3CCN(C(=O)C(C)(C)C(=O)O)C[C@H]32)NC(c2nccs2)=N[C@H]1c1cccc(F)c1C` (single isomer, unassigned) [Compound I-3, 3-((3aS*,7aS*)-1-(((S)-5-(ethoxycarbonyl)-6-(3-fluoro-2-methylphenyl)-2-(thiazol-2-yl)-3,6-dihydropyrimidin-4-yl)methyl)-3,3-difluorohexahydro-1H-pyrrolo[2,3-c]pyridin-6(2H)-yl)-2,2-dimethyl-3-oxopropanoic acid] showed an EC50 in the data set on HBV of 0.21 µM. The midpoint of cytotoxicity in data set [1], the CC50 at 6 days, lay at 30 µM.
In the case of `CCOC(=O)C1=C(CN2CC(F)(F)[C@H]3C(=O)N(CC(C)(C)C(=O)O)CC[C@H]32)NC(c2nccs2)=N[C@H]1c1cccc(F)c1C` (single isomer, unassigned) [Compound I-5, 3-((3aR*,7aR*)-1-(((S)-5-(ethoxycarbonyl)-6-(3-fluoro-2-methylphenyl)-2-(thiazol-2-yl)-3,6-dihydropyrimidin-4-yl)methyl)-3,3-difluoro-4-oxohexahydro-1H-pyrrolo[3,2-c]pyridin-5(6H)-yl)-2,2-dimethylpropanoic acid], in the data set with HBV, the EC50 was found to be 0.048 µM. For the same compound, the midpoint of cytotoxicity in data set [1], the CC50 at 6 days, lay at 47.1 µM.
`CCOC(=O)C1=C(CN2CC(F)(F)[C@H]3CN(CC(C)(C)C(=O)O)CC[C@H]32)NC(c2nccs2)=N[C@H]1c1cccc(F)c1C` (single isomer, unassigned) [Compound I-6, 3-((3aS*,7aR*)-1-(((S)-5-(ethoxycarbonyl)-6-(3-fluoro-2-methylphenyl)-2-(thiazol-2-yl)-3,6-dihydropyrimidin-4-yl)methyl)-3,3-difluorohexahydro-1H-pyrrolo[3,2-c]pyridin-5(6H)-yl)-2,2-dimethylpropanoic acid] showed an EC50 in the data set with HBV of 0.081 µM. Further, the midpoint of cytotoxicity in data set [1], the CC50 at 6 days, lay at 43.4 µM.
In turn, `CCOC(=O)C1=C(CN2CC(F)(F)[C@H]3CN(C(=O)C(C)(C)C(=O)O)CC[C@H]32)NC(c2nccs2)=N[C@H]1c1cccc(F)c1C` [Compound I-4, 3-((cis)-1-(((S)-5-(ethoxycarbonyl)-6-(3-fluoro-2-methylphenyl)-2-(thiazol-2-yl)-3,6-dihydropyrimidin-4-yl)methyl)-3,3-difluorohexahydro-1H-pyrrolo[3,2-c]pyridin-5(6H)-yl)-2,2-dimethyl-3-oxopropanoic acid] came in with an EC50 with HBV of 0.081 µM. Moreover, the midpoint of cytotoxicity in data set [1], the CC50 at 6 days, lay at 34.4 µM.
